Calls of active or inactive are those of the source.
Assays:
Homo sapiens = organism: Homo sapiens; experiment: Cytotoxicity against human HCC1171 cells assessed as reduction in cell viability incubated for 96 hrs by Cell-titer Glo reagent based assay; type: functional
HCC44 = experiment: Cytotoxicity against human HCC44 cells assessed as reduction in cell viability incubated for 96 hrs by Cell-titer Glo reagent based assay; type: functional
Bacillus subtilis = experiment: Antibacterial activity against Bacillus subtilis assessed as zones of growth inhibition incubated for 24 hrs by […]; type: functional, organism-based
Pseudomonas aeruginosa = experiment: Antibacterial activity against Pseudomonas aeruginosa assessed as zones of growth inhibition incubated for 24 hrs by […]; type: functional, organism-based
HCC366 = experiment: Cytotoxicity against human HCC366 cells assessed as reduction in cell viability incubated for 96 hrs by Cell-titer Glo reagent based assay; type: functional
A549 = experiment: Cytotoxicity against human A549 cells assessed as reduction in cell viability incubated for 96 hrs by Cell-titer Glo reagent based assay; type: functional

CC(C)=CC(=O)NC1=CC(=O)[C@]2(C)[C@H](O)[C@@H](O)[C@H](C)N12
inactive: Activity (Homo sapiens) | Activity (HCC44) | growth inhibition (GI) (Bacillus subtilis) | growth inhibition (GI) (Pseudomonas aeruginosa) | Activity (HCC366) | Activity (A549)

CC(C)=Cc1nc(N2C(=O)CC[C@@H]2C)cc(=O)o1
inactive: Activity (Homo sapiens) | Activity (HCC44) | growth inhibition (GI) (Bacillus subtilis) | growth inhibition (GI) (Pseudomonas aeruginosa) | Activity (HCC366) | Activity (A549)

CC(C)/C=C/C(=O)NC1=CC(=O)[C@]2(C)CC[C@H](C)N12
inactive: Activity (Homo sapiens) | Activity (HCC44) | growth inhibition (GI) (Bacillus subtilis) | growth inhibition (GI) (Pseudomonas aeruginosa) | Activity (HCC366) | Activity (A549)

CC(C)=CC(=O)NC1=CC(=O)[C@@]2(O)CC[C@H](C)N12
inactive: Activity (Homo sapiens) | Activity (HCC44) | growth inhibition (GI) (Bacillus subtilis) | growth inhibition (GI) (Pseudomonas aeruginosa) | Activity (HCC366) | Activity (A549)

C/C=C(\C)C(=O)NC1=CC(=O)[C@]2(C)CC[C@H](C)N12
inactive: Activity (Homo sapiens) | Activity (HCC44) | growth inhibition (GI) (Bacillus subtilis) | growth inhibition (GI) (Pseudomonas aeruginosa) | Activity (HCC366) | Activity (A549)

C[C@H]1CC[C@@]2(C)C(=O)C=C(NC(=O)c3ccccc3)N12
inactive: Activity (Homo sapiens) | Activity (HCC44) | growth inhibition (GI) (Bacillus subtilis) | growth inhibition (GI) (Pseudomonas aeruginosa) | Activity (HCC366) | Activity (A549)

CC(C)=Cc1nc(N2C(=O)C[C@H](O)[C@@H]2C)cc(=O)o1
inactive: Activity (Homo sapiens) | Activity (HCC44) | growth inhibition (GI) (Bacillus subtilis) | growth inhibition (GI) (Pseudomonas aeruginosa) | Activity (HCC366) | Activity (A549)

CC(C)=CC(=O)NC1=CC(=O)[C@]2(C)C=C[C@H](C)N12
inactive: Activity (Homo sapiens) | Activity (HCC44) | growth inhibition (GI) (Bacillus subtilis) | growth inhibition (GI) (Pseudomonas aeruginosa) | Activity (HCC366) | Activity (A549)
